This note sets out measurements from patent publication US20260297060A1, “COMPOUNDS FOR THE DEGRADATION OF MUTANT BRAF” (C4 THERAPEUTICS, INC., priority 2023, published 2026).

Usually Emax stands for the maximal effect, on the per cent scale that the assay sets.

Like-named read-outs stand apart in the source and are kept apart here.

The target in the test is T1, BRAF V600E (Homo sapiens, UniProt P15056+Q96SW2, V600E).
T1 construct: knock-in of the HiBiT tag to the endogenous BRAF V600E locus; host or cells: A375.10 (A375 clonal line, CRISPR HiBiT knock-in at the endogenous BRAF V600E locus)
The test is described as follows: BRAF V600E HiBiT Degradation Assay. It counts as cell-based. The essentials:
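Endogenous HiBiT knock-in on BRAF V600E in A375 cells (clone A375.10); 11-point half-log series, top 10 μM, 2, 6 or 24 h at 37° C. Lytic HiBiT luminescence, background-subtracted, normalized to DMSO; 4-parameter fit gives DC50, Emax (residual protein) and IP (inflection point).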

[1] abbreviates: A375.10 cells, BRAF V600E, 2 hours, inflection point, read-out: HiBiT-Degradation A375.10 BRAF 2 hours IP.
Setting [2] is: A375.10 cells, BRAF V600E, 2 hours, read-out: HiBiT-Degradation A375.10 BRAF 2 hours DC50.
[3] abbreviates: A375.10 cells, BRAF V600E, 6 hours, inflection point, read-out: HiBiT-Degradation A375.10 BRAF 6 hours IP.
The mark [4] stands for this setting: A375.10 cells, BRAF V600E, 6 hours, read-out: HiBiT-Degradation A375.10 BRAF 6 hours DC50.
The mark [5] stands for this setting: A375.10 cells, BRAF V600E, 6 hours, residual protein remaining, read-out: HiBiT-Degradation A375.10 BRAF 6 hours Emax.
[6] abbreviates: A375.10 cells, HiBiT, BRAF V600E, 24 hours, read-out: HiBiT-Degradation A375.10 BRAF 24 hours DC50.
Setting [7] is: A375.10 cells, HiBiT, BRAF V600E, 24 hours, read-out: HiBiT-Degradation A375.10 BRAF 24 hours Emax.
Where [8] appears, read: A375.10 cells, HiBiT, BRAF V600E, 24 hours, read-out: HiBiT-Degradation A375.10 BRAF 24 hours IP.
Setting [9] is: read-out: HiBiT-Degradation A375.10 BRAF 2 hours Emax, A375.10 cells, BRAF V600E, 2 hours, residual protein remaining.
[10] abbreviates: A375.10 cells, BRAF V600E, 2 hours, residual protein remaining, read-out: HiBiT-Degradation A375.10 BRAF 2 hours Emax.
The mark [11] stands for this setting: read-out: HiBiT-Degradation A375.10 BRAF 2 hours DC50, A375.10 cells, BRAF V600E, 2 hours.
Setting [12] is: read-out: HiBiT-Degradation A375.10 BRAF 2 hours IP, A375.10 cells, BRAF V600E, 2 hours, inflection point.
Where [13] appears, read: read-out: HiBiT-Degradation A375.10 BRAF 6 hours DC50, A375.10 cells, BRAF V600E, 6 hours.
Where [14] appears, read: read-out: HiBiT-Degradation A375.10 BRAF 24 hours DC50, A375.10 cells, HiBiT, BRAF V600E, 24 hours.
Setting [15] is: A375.10 cells, HiBiT, BRAF V600E, 24 hours.

T1 sequence (P15056 whole entry V600E): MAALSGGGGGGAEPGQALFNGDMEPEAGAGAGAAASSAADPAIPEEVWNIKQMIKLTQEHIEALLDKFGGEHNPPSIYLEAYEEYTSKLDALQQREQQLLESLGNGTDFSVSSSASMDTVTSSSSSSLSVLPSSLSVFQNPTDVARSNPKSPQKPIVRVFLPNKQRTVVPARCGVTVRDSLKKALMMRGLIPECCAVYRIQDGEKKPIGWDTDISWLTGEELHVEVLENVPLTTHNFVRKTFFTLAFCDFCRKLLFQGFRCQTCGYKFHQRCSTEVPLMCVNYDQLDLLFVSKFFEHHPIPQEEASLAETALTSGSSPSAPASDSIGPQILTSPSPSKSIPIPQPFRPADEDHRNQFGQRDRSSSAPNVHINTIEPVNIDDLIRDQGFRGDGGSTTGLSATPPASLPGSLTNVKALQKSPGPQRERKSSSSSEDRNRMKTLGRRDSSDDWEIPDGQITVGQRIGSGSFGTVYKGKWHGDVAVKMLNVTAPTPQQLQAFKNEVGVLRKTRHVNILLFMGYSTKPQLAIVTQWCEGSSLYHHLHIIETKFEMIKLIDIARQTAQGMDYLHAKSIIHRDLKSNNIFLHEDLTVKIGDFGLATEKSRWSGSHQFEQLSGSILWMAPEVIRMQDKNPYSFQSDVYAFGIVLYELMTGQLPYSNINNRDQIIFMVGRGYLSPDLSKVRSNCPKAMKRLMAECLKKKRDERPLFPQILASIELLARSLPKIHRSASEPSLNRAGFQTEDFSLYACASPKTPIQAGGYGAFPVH
T1 sequence (Q96SW2 whole entry): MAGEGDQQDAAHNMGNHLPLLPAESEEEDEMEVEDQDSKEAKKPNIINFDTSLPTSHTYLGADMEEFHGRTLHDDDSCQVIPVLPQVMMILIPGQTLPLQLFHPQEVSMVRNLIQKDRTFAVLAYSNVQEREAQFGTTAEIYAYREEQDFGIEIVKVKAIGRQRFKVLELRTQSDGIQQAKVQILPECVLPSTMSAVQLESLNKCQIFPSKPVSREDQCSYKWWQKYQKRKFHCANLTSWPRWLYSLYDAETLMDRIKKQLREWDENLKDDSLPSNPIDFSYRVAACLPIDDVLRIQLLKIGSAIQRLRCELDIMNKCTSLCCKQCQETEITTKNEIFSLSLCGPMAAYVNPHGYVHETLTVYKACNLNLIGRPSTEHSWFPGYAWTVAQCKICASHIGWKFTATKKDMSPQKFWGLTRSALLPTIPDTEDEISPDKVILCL
T1 sequence (Q16531 whole entry partner): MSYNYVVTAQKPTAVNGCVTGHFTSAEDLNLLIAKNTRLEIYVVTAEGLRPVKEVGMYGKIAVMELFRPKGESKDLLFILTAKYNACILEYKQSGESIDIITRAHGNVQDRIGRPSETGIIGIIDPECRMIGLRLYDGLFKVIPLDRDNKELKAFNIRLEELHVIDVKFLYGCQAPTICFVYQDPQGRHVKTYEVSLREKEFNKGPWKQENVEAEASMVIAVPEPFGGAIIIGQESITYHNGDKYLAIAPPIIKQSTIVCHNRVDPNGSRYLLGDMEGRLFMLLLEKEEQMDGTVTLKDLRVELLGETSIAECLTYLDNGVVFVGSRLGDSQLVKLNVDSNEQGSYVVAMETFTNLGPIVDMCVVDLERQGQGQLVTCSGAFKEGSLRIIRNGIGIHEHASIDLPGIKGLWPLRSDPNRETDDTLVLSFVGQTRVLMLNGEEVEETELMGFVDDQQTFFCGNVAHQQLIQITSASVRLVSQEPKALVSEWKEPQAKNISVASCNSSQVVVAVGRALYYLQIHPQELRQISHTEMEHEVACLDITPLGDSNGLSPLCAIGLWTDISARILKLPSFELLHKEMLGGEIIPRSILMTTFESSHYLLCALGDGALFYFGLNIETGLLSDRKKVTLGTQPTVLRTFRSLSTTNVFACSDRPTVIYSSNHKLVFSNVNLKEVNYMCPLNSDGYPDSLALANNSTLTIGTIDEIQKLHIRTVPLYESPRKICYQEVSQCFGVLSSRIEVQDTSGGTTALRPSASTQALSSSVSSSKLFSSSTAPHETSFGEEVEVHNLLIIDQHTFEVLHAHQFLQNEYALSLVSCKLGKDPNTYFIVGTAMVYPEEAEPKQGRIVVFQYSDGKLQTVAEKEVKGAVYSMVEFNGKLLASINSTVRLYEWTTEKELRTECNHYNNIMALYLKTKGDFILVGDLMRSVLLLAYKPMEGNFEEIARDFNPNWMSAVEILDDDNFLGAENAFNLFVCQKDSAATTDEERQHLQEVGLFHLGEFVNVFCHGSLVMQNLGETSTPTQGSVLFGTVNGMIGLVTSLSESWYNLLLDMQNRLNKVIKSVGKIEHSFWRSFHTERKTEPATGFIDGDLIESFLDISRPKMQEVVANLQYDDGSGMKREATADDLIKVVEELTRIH

Take `CCN(C)S(=O)(=O)Nc1ccc(F)c(Oc2ccc3ncn(C4CC5(CCN(C6CC7(C6)CN(c6cc8c(cc6F)c(N6CCC(=O)NC6=O)nn8C)C7)CC5)C4)c(=O)c3c2)c1C#N` (stereo not drawn) [Compound 141, 6-[2-cyano-3-[[ethyl(methyl)sulfamoyl]amino]-6-fluoro-phenoxy]-3-[7-[2-[3-(2,4-dioxohexahydropyrimidin-1-yl)-5-fluoro-1-methyl-indazol-6-yl]-2-azaspiro[3.3]heptan-6-yl]-7-azaspiro[3.5]nonan-2-yl]-4-oxo-quinazoline]: the DC50 reads like this: under setting [1], below 1000 nM; under setting [2], below 1000 nM; under setting [3], below 1000 nM; under setting [4], below 1000 nM; under setting [6], below 1000 nM; under setting [8], below 1000 nM. Moreover, the Emax runs as follows: under setting [5], below 50%; under setting [7], below 50%; under setting [9], below 50%.

For `CN(CCO)S(=O)(=O)Nc1ccc(F)c(Oc2ccc3ncn(C4CC5(CCN(C6CCC(c7cc8c(cc7F)c(N7CCC(=O)NC7=O)nn8C)CC6F)CC5)C4)c(=O)c3c2)c1C#N` (single isomer, unassigned) [Compound 145, 6-[2-cyano-6-fluoro-3-[[2-hydroxyethyl(methyl)sulfamoyl]amino]phenoxy]-3-[7-[4-[3-(2,4-dioxohexahydropyrimidin-1-yl)-5-fluoro-1-methyl-indazol-6-yl]-2-fluoro-cyclohexyl]-7-azaspiro[3.5]nonan-2-yl]-4-oxo-quinazoline], the DC50 is below 1000 nM under setting [1]; below 1000 nM under setting [2]; below 1000 nM under setting [3]; below 1000 nM under setting [4]; below 1000 nM under setting [6]; below 1000 nM under setting [8]. Moreover, the maximum response (Emax) under setting [5] is below 50%, the Emax under setting [7] was below 50% and the Emax under setting [9] is below 50%.

For `CN(CCO)S(=O)(=O)Nc1ccc(F)c(Oc2ccc3ncn(C4CC5(CCN(C6CC7(C6)CN(c6cc8c(cc6F)c(N6CCC(=O)NC6=O)nn8C)C7)CC5)C4)c(=O)c3c2)c1C#N` (stereo not drawn) [Compound 151, 6-[2-cyano-6-fluoro-3-[[2-hydroxyethyl(methyl)sulfamoyl]amino]phenoxy]-3-[7-[2-[3-(2,4-dioxohexahydropyrimidin-1-yl)-5-fluoro-1-methyl-indazol-6-yl]-2-azaspiro[3.3]heptan-6-yl]-7-azaspiro[3.5]nonan-2-yl]-4-oxo-quinazoline], the maximal response (Emax) was 50 to 90% under setting [10], below 50% under setting [5] and below 50% under setting [7]. For the same compound, the DC50 is 1000 to 10000 nM under setting [11]; below 1000 nM under setting [12]; below 1000 nM under setting [13]; below 1000 nM (read-out: HiBiT-Degradation A375.10 BRAF 6 hours IP, A375.10 cells, BRAF V600E, 6 hours, inflection point); below 1000 nM under setting [14]; below 1000 nM (read-out: HiBiT-Degradation A375.10 BRAF 24 hours IP, A375.10 cells, HiBiT, BRAF V600E, 24 hours).

As for `Cn1nc(N2CCC(=O)NC2=O)c2cc(F)c(N3CC4(CC(N5CCC6(CC5)CC(n5cnc7ccc(Oc8c(F)ccc(NS(=O)(=O)N9CC[C@@H](F)C9)c8C#N)cc7c5=O)C6)C4)C3)cc21` [Compound 261, (3R)-N-[2-cyano-3-[3-[7-[2-[3-(2,4-dioxohexahydropyrimidin-1-yl)-5-fluoro-1-methyl-indazol-6-yl]-2-azaspiro[3.3]heptan-6-yl]-7-azaspiro[3.5]nonan-2-yl]-4-oxo-quinazolin-6-yl]oxy-4-fluoro-phenyl]-3-fluoro-pyrrolidine-1-sulfonamide], the DC50 runs as follows: under setting [11], below 1000 nM; under setting [12], below 1000 nM. In addition, the Emax under setting [9] was below 50%.

Take `Cn1nc(N2CCC(=O)NC2=O)c2cc(F)c(N3CC4(CC(N5CCC6(CC5)CC(n5cnc7ccc(Oc8c(F)ccc(NS(=O)(=O)C9CCCC9)c8C#N)cc7c5=O)C6)C4)C3)cc21` [Compound 250, N-[2-cyano-3-[3-[7-[2-[3-(2,4-dioxohexahydropyrimidin-1-yl)-5-fluoro-1-methyl-indazol-6-yl]-2-azaspiro[3.3]heptan-6-yl]-7-azaspiro[3.5]nonan-2-yl]-4-oxo-quinazolin-6-yl]oxy-4-fluoro-phenyl]cyclopentanesulfonamide]: the DC50 reads like this: under setting [1], below 1000 nM; under setting [2], below 1000 nM. Besides, under setting [9], the maximum response (Emax) is below 50%.

Turning to `Cn1nc(N2CCC(=O)NC2=O)c2cc(F)c(C3CCC(N4CCC5(CC4)C[C@@H](n4cnc6ccc(Oc7c(F)ccc(NS(=O)(=O)C8CCCC8)c7C#N)cc6c4=O)CO5)CC3)cc21` (single isomer, unassigned) [Compound 113], the DC50 reads like this: under setting [1], below 1000 nM; under setting [2], below 1000 nM; under setting [3], below 1000 nM; under setting [4], below 1000 nM; under setting [6], below 1000 nM; under setting [8], below 1000 nM. Besides, the maximum response (Emax) by setting is: under setting [10], below 50%; under setting [5], below 50%; under setting [7], below 50%.

Consider `CCN(C)S(=O)(=O)Nc1ccc(F)c(Nc2ccc3ncn([C@H]4COC5(CCN(C6CCC(c7cc8c(cc7F)c(N7CCC(=O)NC7=O)nn8C)CC6)CC5)C4)c(=O)c3c2)c1C#N` (single isomer, unassigned) [Compound 64], for which the DC50 under setting [1] is below 1000 nM; the DC50 under setting [2] was below 1000 nM; the DC50 under setting [3] is below 1000 nM; the DC50 under setting [4] was below 1000 nM; the DC50 under setting [6] was below 1000 nM; the DC50 under setting [8] was below 1000 nM. The Emax reads like this: under setting [10], below 50%; under setting [5], below 50%; under setting [7], below 50%.

`CCN(C)S(=O)(=O)Nc1ccc(F)c(Oc2ccc3ncn([C@H]4COC5(CCN(C6CC(c7cc8c(cc7F)c(N7CCC(=O)NC7=O)nn8C)C6)CC5)C4)c(=O)c3c2)c1C#N` (single isomer, unassigned) [Compound 70]: the “HiBiT-Degradation A375.10 BRAF 2 hours IP” value (A375.10 cells, BRAF V600E, 2 hours, inflection point) is reported as “*** (<=1 μM)”. Also, the maximal response (Emax) is below 50% under setting [10], below 50% under setting [5] and below 50% under setting [7]. The “HiBiT-Degradation A375.10 BRAF 6 hours IP” value (A375.10 cells, BRAF V600E, 6 hours, inflection point) was “*** (<=1 μM)”. Besides, the “HiBiT-Degradation A375.10 BRAF 24 hours IP” value under setting [15] is reported as “*** (<=1 μM)”. Moreover, the DC50 is, setting by setting: under setting [11], below 1000 nM; under setting [13], below 1000 nM; under setting [14], below 1000 nM.

For `COC1CN(S(=O)(=O)Nc2ccc(F)c(Oc3ccc4ncn([C@H]5COC6(CCN(C7CC8(C7)CN(c7cc9c(cc7F)c(N7CCC(=O)NC7=O)nn9C)C8)CC6)C5)c(=O)c4c3)c2C#N)C1` [Compound 246, N-[2-cyano-3-[3-[(3R)-8-[2-[3-(2,4-dioxohexahydropyrimidin-1-yl)-5-fluoro-1-methyl-indazol-6-yl]-2-azaspiro[3.3]heptan-6-yl]-1-oxa-8-azaspiro[4.5]decan-3-yl]-4-oxo-quinazolin-6-yl]oxy-4-fluoro-phenyl]-3-methoxy-azetidine-1-sulfonamide], the DC50 reads like this: under setting [11], 1000 to 10000 nM; under setting [12], below 1000 nM. Moreover, the Emax under setting [9] lay in the range of 50 to 90%.

For `CCN(C)S(=O)(=O)Nc1ccc(F)c(Oc2ccc3ncn(C4CC5(C4)CN(C4CCC(c6cc7c(cc6F)c(N6CCC(=O)NC6=O)nn7C)CC4)C5)c(=O)c3c2)c1C#N` (single isomer, unassigned) [Compound 204, 6-[2-cyano-3-[[ethyl(methyl)sulfamoyl]amino]-6-fluoro-phenoxy]-3-[2-[4-[3-(2,4-dioxohexahydropyrimidin-1-yl)-5-fluoro-1-methyl-indazol-6-yl]cyclohexyl]-2-azaspiro[3.3]heptan-6-yl]-4-oxo-quinazoline], the “HiBiT-Degradation A375.10 BRAF 2 hours Emax” value is “*** (<=50%)”. For the same compound, under setting [1], the DC50 was below 1000 nM. Besides, the DC50 under setting [2] was below 1000 nM. The “HiBiT-Degradation A375.10 BRAF 24 hours Emax” value under setting [15] is listed as “*** (<=50%)”. In addition, the DC50 under setting [6] is below 1000 nM. In addition, the DC50 under setting [8] was below 1000 nM.

`Cn1nc(N2CCC(=O)NC2=O)c2cc(F)c(C3CCC(N4CCC5(CC4)C[C@@H](n4cnc6ccc(Oc7c(F)ccc(NS(=O)(=O)N8CC[C@@H](F)C8)c7C#N)cc6c4=O)CO5)CC3)cc21` (single isomer, unassigned) [Compound 121]: the DC50 is below 1000 nM under setting [1]; below 1000 nM under setting [2]; below 1000 nM under setting [3]; below 1000 nM under setting [4]; below 1000 nM under setting [6]; below 1000 nM under setting [8]. Moreover, the Emax is, setting by setting: under setting [10], below 50%; under setting [5], below 50%; under setting [7], below 50%.
